From ChEMBL document CHEMBL3112555, “Danshen diversity defeating dementia” (Bioorg Med Chem Lett, 2014) come the findings set out here.

Structures are written as SMILES.

Holding throughout (details): in vivo
The nature of data set [1]: Bioavailability in rat at 100 mg/kg, ip. Type of data set: ADME, organism-based.
Data set [2] in a line: Oral bioavailability in rat at 100 mg/kg. It is filed as ADME, organism-based.
Data set [3] can be described thus: Bioavailability in beagle dog. It is filed as ADME, organism-based, Canis lupus familiaris.

In the case of `C[C@H]1COC2=C1C(=O)C(=O)c1c2ccc2c1CCCC2(C)C` [CRYPTOTANSHINONE], the bioavailability in data set [1] was found to be 10.6%; in data set [2], 2.1%.

In data set [3], `O=C(/C=C/c1ccc(O)c(O)c1/C=C/c1ccc(O)c(O)c1)O[C@H](Cc1ccc(O)c(O)c1)C(=O)O` [SALVIANOLIC ACID A] showed a bioavailability of 1.47%.
